Consider 1 compound from ChEMBL document CHEMBL5321216, “Discovery of bipyridine amide derivatives targeting pRXRα-PLK1 interaction for anticancer therapy” (Eur J Med Chem, 2023).

Data set [1] can be described thus: Tmax in Sprague-Dawley rat at 25 mg/kg, ip measured for 48 hrs by LC-MS/MS analysis. Particulars: in vivo; call rule not given here. Type of data set: ADME, organism-based.
The subject of data set [2] is MDA-MB-231. In words: Induction of apoptosis in human MDA-MB-231 cells assessed as late apoptotic cells at 20 uM incubated for 24 hrs by annexin V-FITC/PI staining based flow cytometry analysis (reference value: 5.93%). The format is functional. (In flow cytometry, cells or beads pass a laser one at a time.)
A short description of data set [3]: Drug absorption in KM mouse at 25 mg/kg, po measured after 0.5 to 2 hrs. The format is ADME, organism-based. The following applies: in vivo, time 0.5-2 hrs.
A short description of data set [4]: AUC (0 to infinity) in Sprague-Dawley rat at 25 mg/kg, ip measured for 48 hrs by LC-MS/MS analysis. The format is ADME, organism-based. Also on record: time 48 hrs, dose 25 mg/kg, route ip. Particulars: in vivo.
Data set [5] can be described thus: Apparent volume of distribution during terminal phase in Sprague-Dawley rat at 25 mg/kg, ip measured for 48 hrs by LC-MS/MS analysis. The format is ADME, organism-based. The following applies: in vivo, read-out: Vz/F.
Data set [6] can be described thus: Elimination half life in Sprague-Dawley rat at 25 mg/kg, ip measured for 48 hrs by LC-MS/MS analysis. Particulars: in vivo, read-out: beta t1/2 (converted). Type of data set: ADME, organism-based.
The subject of data set [7] is MDA-MB-231. In words: Induction of apoptosis in human MDA-MB-231 cells assessed as early apoptotic cells at 20 uM incubated for 24 hrs by annexin V-FITC/PI staining based flow cytometry analysis (reference value: 2.03%). Type of data set: functional.
The test system of data set [8] is A549. Description: Induction of apoptosis in human A549 cells assessed as late apoptotic cells at 20 uM incubated for 24 hrs by annexin V-FITC/PI staining based flow cytometry analysis (reference value: 5.28%). The format is functional.
For data set [9], the system named is MDA-MB-231. In words: Antiproliferative activity against human MDA-MB-231 cells assessed as cell viability rate at 5 uM incubated for 72 hrs by MTT assay relative to control. Type of data set: functional.
Another data set deals with HepG2. Description: Antiproliferative activity against human HepG2 cells assessed as cell viability rate at 5 uM incubated for 72 hrs by MTT assay relative to control. The format is functional. Background: Tetrazolium dyes change colour on reduction, which living cells bring about.
Data set [10] is described as follows: Apparent clearance during terminal phase in Sprague-Dawley rat at 25 mg/kg, ip measured for 48 hrs by LC-MS/MS analysis. Type of data set: ADME, organism-based. The following applies: in vivo, read-out: CLz/F (converted).
Data set [11] concerns A549. In words: Induction of apoptosis in human A549 cells assessed as live cells at 20 uM incubated for 24 hrs by annexin V-FITC/PI staining based flow cytometry analysis (reference value: 93.2%). Type of data set: functional.
In data set [12] the test system is A549. In words: Antiproliferative activity against human A549 cells assessed as cell viability rate at 5 uM incubated for 72 hrs by MTT assay relative to control. The format is functional.
Data set [13] has as its system MDA-MB-231. Description: Induction of apoptosis in human MDA-MB-231 cells assessed as dead cells at 20 uM incubated for 24 hrs by annexin V-FITC/PI staining based flow cytometry analysis (reference value: 0.69%). The format is functional.
The subject of data set [14] is A549. Description: Induction of apoptosis in human A549 cells assessed as dead cells at 20 uM incubated for 24 hrs by annexin V-FITC/PI staining based flow cytometry analysis (reference value: 0.75%). The format is functional.
The nature of data set [15]: Cmax in Sprague-Dawley rat at 25 mg/kg, ip measured for 48 hrs by LC-MS/MS analysis. The format is ADME, organism-based. Also on record: time 48 hrs, dose 25 mg/kg, route ip. The following applies: in vivo.
Data set [16] can be described thus: Drug absorption in KM mouse at 25 mg/kg, ip measured after 0.5 to 2 hrs. Type of data set: ADME, organism-based. Particulars: in vivo, time 0.5-2 hrs.
Data set [17] relates to A549. In words: Induction of apoptosis in human A549 cells assessed as early apoptotic cells at 20 uM incubated for 24 hrs by annexin V-FITC/PI staining based flow cytometry analysis (reference value: 0.78%). The format is functional.
In data set [18] the test system is MDA-MB-231. Description: Induction of apoptosis in human MDA-MB-231 cells assessed as live cells at 20 uM incubated for 24 hrs by annexin V-FITC/PI staining based flow cytometry analysis (reference value: 91.3%). The format is functional.
In data set [19] the test system is MDA-MB-231. Description: Antiproliferative activity against human MDA-MB-231 cells assessed as inhibition of cell proliferation incubated for 72 hrs by MTT assay. The format is functional, cell-based. The following applies: MDA-MB-231, 72 h.

A word on the Tmax: it is the time at which the peak concentration occurs. In general, AUC(0-inf) refers to the area under the concentration-time curve extrapolated to infinity. As a reminder, the Cmax is the highest concentration seen after dosing. The IC50 is the concentration that gives 50% inhibition.

For `COc1ccc(CC(=O)N/N=C/c2c(O)ccc3ccccc23)cc1`, the Tmax in data set [1] worked out at 2.67 h. Also, the Activity in the data set with MDA-MB-231 [2] turned out to be 12.7%; in the data set with MDA-MB-231 [7], 23.5%; in the data set on A549 [8], 32.7%; in the data set with MDA-MB-231 [9], 51.93%; in the data set with HepG2, 48.65%; in the data set with A549 [11], 40.1%. Besides, the Activity in the data set with A549 [12] was 82.65%; in the data set on MDA-MB-231 [13], 1.22%; in the data set on A549 [14], 1.15%; in the data set on A549 [17], 26.1%; in the data set with MDA-MB-231 [18], 62.5%. In addition, the Drug absorption result in data set [3] is “Not Active”; in [16] it was “Active”. In data set [4], this compound had an AUC(0-inf) of 7040 ng·h/mL. The Vd/F in [5] stood at 11.3 L/kg. For the same compound, the half-life in [6] was 2.13 h. Besides, the CL/F in data set [10] was 61.2 mL/min/kg. Besides, the concentration in [15] peaked (Cmax) at 1060 ng/mL. Moreover, in the data set with MDA-MB-231 [19], the IC50 was 6.88 µM.
